Laboratory results from patent publication US11827624B2, “Covalent immune recruiter compounds for immune cell recognition and associated uses” (McMaster University, priority 2020, dated 2023).

Legend:
[1] = system: HEK PSMA+cells; assay: Flow cytometry antibody recruitment to the target cell surface; format: cell-based, human
Protocol: CIR 3 or ARM 11 (640 nM) was incubated with 320 nM antibody (mmAb or mAb) at room temperature overnight. After overnight incubation, a dilution series (1:2, 1:3, 1:3, 1:3) was conducted using each condition stock which was then equilibrated for 90 minutes prior to addition to the assay well plate. HEK293 cells transfected with PSMA, were washed 3× and placed in a flow buffer containing 4% FBS, 0.5 mM EDTA/EGTA, 0.1% Sodium Azide, at a concentration of 2×10^6 Cells/mL. 75 μL of cells were added (150 000 Cells per sample) and kept on ice. 25 μL of antibody+CIR or antibody+ARM conditions prepared above were added to the target cells (experimental antibody concentrations: 80 nM, 40 nM, 13.3 nM, 4.4 nM, 1.5 nM). For the DNP Control, 4.5 mM was added to antibody for 5 minutes, then the CIR/ARM was added, and the solution incubated overnight. […]
Elimination equilibrium of the ARM:antibody through a covalent linkage to CIRs, and its impact on total antibody recruitment to target cells, at different therapeutically relevant antibody concentrations was next evaluated. […] This leads to increases in the mean fluorescence intensity (MFI) of associated cell populations, detectable in flow cytometry.
Antibody recruitment to the cell surface is proportional to the mean fluorescence intensity (MFI) of cell populations, bound to mmAb antibody complexes comprising CIR 3 or ARM 11. […]

[2] = system: human serum anti-DNP IgG (sAb); assay: BLI Fc capture probe assay of CIR 3 covalent recruitment of serum anti-DNP IgG; format: binding; details: 60 nM anti-DNP IgG enriched sample
Protocol: The ability of CIR 3 to recruit the tumour antigen PSMA to anti-DNP antibodies was measured using BLI. Anti-DNP IgG was isolated from human serum IgG (Cedarlane Labs) using affinity chromatography. The enriched anti-DNP antibody sample had 63.19 nM of anti-DNP antibody in 1.92 μM of total IgG. The enriched antibody sample was reacted with 2.5 μM of CIR 3 in PBS overnight at room temperature. A sample of 32.75 μM IgG that was depleted of anti-DNP antibody was also reacted with 2.5 μM of CIR 3 in PBS overnight at room temperature as a negative control. The BLI experiment was conducted using an Octet Red96 (ForteBio) with the temperature set at 25° C., the RPM set at 1000, and the acquisition rate set at 5 Hz. The isolated anti-DNP and CIR 3 reaction samples were suspended in 1×Kinetics Buffer (ForteBio) by doping in a 1:10 dilution of 10×Kinetics Buffer stock. A volume of 200 μL of each solution was loaded into a black flat-bottom 96-well plate (Grenier). Fc capture (ProG) biosensors from ForteBio were placed in 1×Kinetics Buffer for 20 minutes prior to the experiment for wetting. First, the probes were placed in 1×Kinetics Buffer for 4 minutes to establish a baseline. […] Association of PSMA to the probe was measured by submerging the probe in 500 nM PSMA for 10 minutes. Dissociation of PSMA from the probe was measured by submerging the probe in 1×Kinetics Buffer for 10 minutes. […]

O=C(O)CC[C@H](NC(=O)N[C@@H](CCCCNC(=O)NCCOCCOCCOCCOCCOCCOCCOCCOC(=O)n1cnc(CCNC(=O)CNc2ccc([N+](=O)[O-])cc2[N+](=O)[O-])c1)C(=O)O)C(=O)O [CIR 3]
total antibody recruitment to the target cell surface (MFI) ([1]; higher antibody concentrations (40-80 nM)): comparable efficiencies | total antibody recruitment to the target cell surface (MFI) ([1]; sub-saturating mAb or mmAb (<40 nM), 37° C.): more total antibody recruitment to the target cell surface compared to ARM 11 | covalent labeling of enriched serum anti-DNP IgG [2]: substantial covalent antibody labeling and resultant PSMA binding to Fc capture probes
